The test system of this test is experimental autoimmune encephalomyelitis (EAE). It is filed as in vivo, C57BL/6 mice. The method, then:
FIGS. 3A, 3B, and 3C. FIGS. 3A, 3B, and 3C depicts pevonedistat treatment effects in an MS animal model. FIG. 3A depicts the trial design: C57BL/6 mice were treated daily starting on Day−1 with either Pevonedistat (20 mg/kg) or placebo (n=10/group). The result shown here is one representative of two independent experiments. EAE was induced through active immunization with myelin oligodendrocyte (MOG) peptide 35-55 following standard protocols (triangles). Weights were taken on D−1, D7, and D14 (dots). Animals were scored daily. Mice were sacrificed and brain and spinal cords of were harbored on Day 16 at peak disease (n=4/group) (triangle). FIG. 3B depicts EAE severity: Diseases was assessed blinded using a […] scale from 0 to 5 (0=no symptoms, 5=death). Data shown here are from one representative of two experiments. FIG. 3C depicts mice weights over the course of the experiment. ****p-value<0.001, 2-way ANOVA test.
EAE induction and neddylation inhibition in mice. Four weeks old female C57BL/6 mice were used. All mice were housed in closed caging systems and provided with standard irradiated chow diet, acidified water ad libitum and housed under a 12-hour light cycle. Pevonedistat (MLN4924) (Chemietek Inc., Indianapolis, Ind.) was dissolved in DMSO and further diluted in 30% of PEG300 and 5% of TWEEN in ddH2O at a concentration of 40 mg/mL and stored at −20° C. 7-8 week old mice were treated daily with 20 mg/kg Pevonedistat or vehicle (same concentration of buffer without Pevonedistat) starting at day −1. Mice were immunized subcutaneously on day 0 with 100 μg MOG35-55 emulsified in incomplete Freund's adjuvant supplemented with Mycobacterium tuberculosis followed by two intraperitoneal injections on Day 0 and Day 2 with 300 ng pertussis each. […] Mice were scored daily on a […] scale in a blinded fashion as follows: 0, no deficit; 1, limp tail only; 2, limp tail and hind limb weakness; 3, complete hind limb paralysis; 4, complete hind limb paralysis and partial/complete forelimb paralysis; 5, death.
Inhibition of neddylation reduces EAE. […] Pevonedistat (MLN4924), which is a small molecule and first-in-class inhibitor of NAE was next used in experimental autoimmune encephalomyelitis (EAE), an established MS mouse model driven by a strong CD4+ T cell response (FIG. 3A). Although Pevonedistat was originally tested as a cancer therapy, recent studies proposed this agent as a potential therapeutic target for immune-related diseases due to the important role of neddylation in immune cell functions.

Where [1] appears, read: 20 mg/kg daily, EAE mice at peak disease.

Regarding `NS(=O)(=O)OC[C@@H]1C[C@@H](n2ccc3c(N[C@H]4CCc5ccccc54)ncnc32)C[C@@H]1O` [Pevonedistat, pevonedistat], under “20 mg/kg daily from day -1, compared to placebo-treated group, FIG. 3B”, the “EAE severity (10-point scale from 0 to 5, scored daily, blinded)” value is on record as “significantly reduced EAE severity”. For the same compound, under setting [1], the “density of CD3+ T cells in spinal cord” value is given as “decreased densities” and the “density of Iba1+ myeloid cells in spinal cord” value is “decreased densities”. Moreover, the “spinal cord inflammation (inflammatory infiltrates)” value (20 mg/kg daily, EAE spinal cords at peak disease, vs placebo) is “dramatic reduction in spinal cord inflammation”. In addition, the “demyelination, histological assessment of CNS tissue” value (20 mg/kg daily, at peak disease (Day 16)) is reported as “significant reduction of demyelination”. The “mice weights during the disease course” value (20 mg/kg daily, placebo group had significant weight loss at peak of disease, FIG. 3C) is “steady weight”.

The values above are taken from patent publication US20220218710A1, “Inhibition of Neddylation for Treatment of MS” (The Regents of the University of California, priority 2019, published 2022).
